Laboratory results from ChEMBL document CHEMBL1134924, “An efficient and practical method for solid-phase synthesis of tripeptide-bearing glycopeptide antibiotics: combinatorial parallel synthesis of carboxamide derivatives of chloroorienticin B” (2002).
Converted amounts (≈) assume the structure as drawn.

Assays:
Assay type in all cases: functional
Enterococcus faecalis = test: In vitro antibacterial activity against VRE (Vancomycin Resistant Enterococcus faecalis SR-7914)
Enterococcus faecium = test: In vitro antibacterial activity against VRE (Vancomycin Resistant Enterococcus faecium SR-7917)
Staphylococcus aureus = test: In vitro antibacterial activity against MRSA (Methicillin Resistant Staphylococcus aureus SR-3637)

SMILES	MIC (Enterococcus faecalis) [µg/mL]	MIC (Enterococcus faecium) [µg/mL]	MIC (Staphylococcus aureus) [µg/mL]
CN[C@H](CC(C)C)C(=O)N[C@H]1C(=O)N[C@@H](CC(N)=O)C(=O)N[C@H]2C(=O)N[C@H]3C(=O)NC(C(=O)N[C@@H](C(=O)NC(=O)[C@H](Cc4ccc(O)cc4)NC(=O)[C@H](Cc4c[nH]c5ccccc45)NC(=O)[C@@H](N)CCC(=O)O)c4cc(O)cc(O)c4-c4cc3ccc4O)[C@H](O[C@H]3C[C@](C)(N)[C@@H](O)[C@H](C)O3)c3ccc(c(Cl)c3)Oc3cc2cc(c3O[C@@H]2O[C@H](CO)[C@@H](O)[C@H](O)[C@H]2O)Oc2ccc(cc2Cl)[C@H]1O	> 128	> 128	8 (≈ 4.15 µM)
CN[C@H](CC(C)C)C(=O)N[C@H]1C(=O)N[C@@H](CC(N)=O)C(=O)N[C@H]2C(=O)N[C@H]3C(=O)NC(C(=O)N[C@@H](C(=O)NC(=O)CNC(=O)[C@H](Cc4c[nH]cn4)NC(=O)[C@@H](N)Cc4c[nH]c5ccccc45)c4cc(O)cc(O)c4-c4cc3ccc4O)[C@H](O[C@H]3C[C@](C)(N)[C@@H](O)[C@H](C)O3)c3ccc(c(Cl)c3)Oc3cc2cc(c3O[C@@H]2O[C@H](CO)[C@@H](O)[C@H](O)[C@H]2O)Oc2ccc(cc2Cl)[C@H]1O	32 (≈ 17.5 µM)	16 (≈ 8.75 µM)	0.25 (≈ 0.137 µM)
CN[C@H](CC(C)C)C(=O)N[C@H]1C(=O)N[C@@H](CC(N)=O)C(=O)N[C@H]2C(=O)N[C@H]3C(=O)NC(C(=O)N[C@@H](C(=O)NC(=O)[C@H](CO)NC(=O)[C@H](Cc4c[nH]c5ccccc45)NC(=O)[C@@H](N)Cc4ccc(O)cc4)c4cc(O)cc(O)c4-c4cc3ccc4O)[C@H](OC3C[C@](C)(N)[C@@H](O)[C@H](C)O3)c3ccc(c(Cl)c3)Oc3cc2cc(c3O[C@@H]2O[C@H](CO)[C@@H](O)[C@H](O)[C@H]2O)Oc2ccc(cc2Cl)[C@H]1O (some centres not stated)	32 (≈ 17 µM)	16 (≈ 8.49 µM)	0.5 (≈ 0.265 µM)
CN[C@H](CC(C)C)C(=O)N[C@H]1C(=O)N[C@@H](CC(N)=O)C(=O)N[C@H]2C(=O)N[C@H]3C(=O)NC(C(=O)N[C@@H](C(=O)NC(=O)CNC(=O)[C@H](Cc4c[nH]c5ccccc45)NC(=O)[C@@H](N)CCCCN)c4cc(O)cc(O)c4-c4cc3ccc4O)[C@H](O[C@H]3C[C@](C)(N)[C@@H](O)[C@H](C)O3)c3ccc(c(Cl)c3)Oc3cc2cc(c3O[C@@H]2O[C@H](CO)[C@@H](O)[C@H](O)[C@H]2O)Oc2ccc(cc2Cl)[C@H]1O	64 (≈ 35.2 µM)	32 (≈ 17.6 µM)	0.25 (≈ 0.137 µM)
CN[C@H](CC(C)C)C(=O)N[C@H]1C(=O)N[C@@H](CC(N)=O)C(=O)N[C@H]2C(=O)N[C@H]3C(=O)NC(C(=O)N[C@@H](C(=O)O)c4cc(O)cc(O)c4-c4cc3ccc4O)[C@H](O[C@H]3C[C@](C)(N)[C@@H](O)[C@H](C)O3)c3ccc(c(Cl)c3)Oc3cc2cc(c3O[C@@H]2O[C@H](CO)[C@@H](O)[C@H](O)[C@H]2O)Oc2ccc(cc2Cl)[C@H]1O	> 128	> 128	0.5 (≈ 0.345 µM)
CN[C@H](CC(C)C)C(=O)N[C@H]1C(=O)N[C@@H](CC(N)=O)C(=O)N[C@H]2C(=O)N[C@H]3C(=O)NC(C(=O)N[C@@H](C(=O)NC(=O)[C@H](CCCCN)NC(=O)[C@H](Cc4ccc(O)cc4)NC(=O)[C@@H](N)CC(C)C)c4cc(O)cc(O)c4-c4cc3ccc4O)[C@H](O[C@H]3C[C@](C)(N)[C@@H](O)[C@H](C)O3)c3ccc(c(Cl)c3)Oc3cc2cc(c3O[C@@H]2O[C@H](CO)[C@@H](O)[C@H](O)[C@H]2O)Oc2ccc(cc2Cl)[C@H]1O	128 (≈ 69.1 µM)	32 (≈ 17.3 µM)	0.5 (≈ 0.27 µM)
CN[C@H](CC(C)C)C(=O)N[C@H]1C(=O)N[C@@H](CC(N)=O)C(=O)N[C@H]2C(=O)N[C@H]3C(=O)NC(C(=O)N[C@@H](C(=O)NC(=O)[C@H](CCCCN)NC(=O)CNC(=O)[C@@H](N)Cc4ccc(O)cc4)c4cc(O)cc(O)c4-c4cc3ccc4O)[C@H](O[C@H]3C[C@](C)(N)[C@@H](O)[C@H](C)O3)c3ccc(c(Cl)c3)Oc3cc2cc(c3O[C@@H]2O[C@H](CO)[C@@H](O)[C@H](O)[C@H]2O)Oc2ccc(cc2Cl)[C@H]1O	128 (≈ 71.2 µM)	64 (≈ 35.6 µM)	0.5 (≈ 0.278 µM)
CN[C@H](CC(C)C)C(=O)N[C@H]1C(=O)N[C@@H](CC(N)=O)C(=O)N[C@H]2C(=O)N[C@H]3C(=O)NC(C(=O)N[C@@H](C(=O)NC(=O)[C@H](Cc4c[nH]cn4)NC(=O)[C@H](Cc4c[nH]c5ccccc45)NC(=O)[C@@H](N)Cc4ccc(O)cc4)c4cc(O)cc(O)c4-c4cc3ccc4O)[C@H](O[C@H]3C[C@](C)(N)[C@@H](O)[C@H](C)O3)c3ccc(c(Cl)c3)Oc3cc2cc(c3O[C@@H]2O[C@H](CO)[C@@H](O)[C@H](O)[C@H]2O)Oc2ccc(cc2Cl)[C@H]1O	16 (≈ 8.27 µM)	8 (≈ 4.13 µM)	0.5 (≈ 0.258 µM)
CN[C@H](CC(C)C)C(=O)N[C@H]1C(=O)N[C@@H](CC(N)=O)C(=O)N[C@H]2C(=O)N[C@H]3C(=O)NC(C(=O)N[C@@H](C(=O)NC(=O)[C@H](CCCCN)NC(=O)[C@H](Cc4c[nH]c5ccccc45)NC(=O)[C@@H](N)CC(C)C)c4cc(O)cc(O)c4-c4cc3ccc4O)[C@H](O[C@H]3C[C@](C)(N)[C@@H](O)[C@H](C)O3)c3ccc(c(Cl)c3)Oc3cc2cc(c3O[C@@H]2O[C@H](CO)[C@@H](O)[C@H](O)[C@H]2O)Oc2ccc(cc2Cl)[C@H]1O	32 (≈ 17.1 µM)	16 (≈ 8.53 µM)	0.5 (≈ 0.267 µM)
CN[C@H](CC(C)C)C(=O)N[C@H]1C(=O)N[C@@H](CC(N)=O)C(=O)N[C@H]2C(=O)N[C@H]3C(=O)NC(C(=O)N[C@@H](C(=O)NC(=O)[C@H](CCC(=O)O)NC(=O)CNC(=O)[C@@H](N)Cc4ccc(O)cc4)c4cc(O)cc(O)c4-c4cc3ccc4O)[C@H](O[C@H]3C[C@](C)(N)[C@@H](O)[C@H](C)O3)c3ccc(c(Cl)c3)Oc3cc2cc(c3O[C@@H]2O[C@H](CO)[C@@H](O)[C@H](O)[C@H]2O)Oc2ccc(cc2Cl)[C@H]1O	> 128	> 128	4 (≈ 2.23 µM)
CN[C@H](CC(C)C)C(=O)N[C@H]1C(=O)N[C@@H](CC(N)=O)C(=O)N[C@H]2C(=O)N[C@H]3C(=O)NC(C(=O)N[C@@H](C(=O)NC(=O)[C@H](Cc4ccc(O)cc4)NC(=O)[C@H](Cc4c[nH]cn4)NC(=O)[C@@H](N)CCCCN)c4cc(O)cc(O)c4-c4cc3ccc4O)[C@H](O[C@H]3C[C@](C)(N)[C@@H](O)[C@H](C)O3)c3ccc(c(Cl)c3)Oc3cc2cc(c3O[C@@H]2O[C@H](CO)[C@@H](O)[C@H](O)[C@H]2O)Oc2ccc(cc2Cl)[C@H]1O	128 (≈ 68.2 µM)	64 (≈ 34.1 µM)	1 (≈ 0.533 µM)
CN[C@H](CC(C)C)C(=O)N[C@H]1C(=O)N[C@@H](CC(N)=O)C(=O)N[C@H]2C(=O)N[C@H]3C(=O)NC(C(=O)N[C@@H](C(=O)NC(=O)[C@H](Cc4ccc(O)cc4)NC(=O)[C@H](Cc4c[nH]c5ccccc45)NC(=O)[C@@H](N)CC(C)C)c4cc(O)cc(O)c4-c4cc3ccc4O)[C@H](O[C@H]3C[C@](C)(N)[C@@H](O)[C@H](C)O3)c3ccc(c(Cl)c3)Oc3cc2cc(c3O[C@@H]2O[C@H](CO)[C@@H](O)[C@H](O)[C@H]2O)Oc2ccc(cc2Cl)[C@H]1O	16 (≈ 8.37 µM)	8 (≈ 4.19 µM)	0.5 (≈ 0.262 µM)
CN[C@H](CC(C)C)C(=O)N[C@H]1C(=O)N[C@@H](CC(N)=O)C(=O)N[C@H]2C(=O)N[C@H]3C(=O)NC(C(=O)N[C@@H](C(=O)NC(=O)[C@H](Cc4c[nH]cn4)NC(=O)[C@H](CCCCN)NC(=O)[C@@H](N)Cc4c[nH]c5ccccc45)c4cc(O)cc(O)c4-c4cc3ccc4O)[C@H](O[C@H]3C[C@](C)(N)[C@@H](O)[C@H](C)O3)c3ccc(c(Cl)c3)Oc3cc2cc(c3O[C@@H]2O[C@H](CO)[C@@H](O)[C@H](O)[C@H]2O)Oc2ccc(cc2Cl)[C@H]1O	64 (≈ 33.7 µM)	8 (≈ 4.21 µM)	< 0.125
CN[C@H](CC(C)C)C(=O)N[C@H]1C(=O)N[C@@H](CC(N)=O)C(=O)N[C@H]2C(=O)N[C@H]3C(=O)N[C@H](C(=O)N[C@H](C(=O)NC(=O)[C@H](Cc4c[nH]cn4)NC(=O)[C@@H]4CCCN4C(=O)[C@@H](N)Cc4c[nH]c5ccccc45)c4cc(O)cc(O)c4-c4cc3ccc4O)[C@H](O[C@H]3C[C@](C)(N)[C@@H](O)[C@H](C)O3)c3ccc(c(Cl)c3)Oc3cc2cc(c3OC2O[C@H](CO)[C@@H](O)[C@H](O)[C@H]2O)Oc2ccc(cc2Cl)[C@H]1O (some centres not stated)	64 (≈ 34.2 µM)	16 (≈ 8.56 µM)	0.5 (≈ 0.268 µM)
